Measured values published in patent US7449492B2, “Therapeutic agents—I” (priority 2000, dated 2008).

Columns and labels:
[1] = tested on: peripheral blood mononuclear cells (PBMCs); experiment: Phagocytosis with fluorescent beads; assay type: cell-based; conditions: whole heparinized blood, 30 min at 37° C.
Procedure: Phagocytosis by peripheral blood mononuclear cells (PBMCs) was assayed (Steinkamp et al., 1982) using 1 μm Fluoresbrite™ yellow-green fluorescent latex spheres (Polysciences, Inc., Warrington, Pa.). A sample of whole, heparinized blood was treated with drug and 5×10E7 fluorescent latex beads in 10 μL of PBS added per mL of suspension. Cells were incubated and maintained in suspension for 30 min by means of a shaker platform at 37° C. The stimulated and non-stimulated samples were then lysed to isolate PBMCs. The PBMCs were run on the flow cytometer measuring FITC (excitation at 488 nm, emission at 525±20 nm), gated for fluorescence (phagocytosed spheres) and light scatter (cell size).

[2] = tested on: MM96L human melanoma cells; experiment: Leukocyte killing with drug present, [3H]-thymidine labelling; assay type: cell-based; conditions: 60 ng/mL with leukocytes, 48 hr; 100:1 ratio of effector:target cells
Procedure: (§1) Leukocytes obtained by lysis of human peripheral blood were added to 5000 MM96L human melanoma cells or 7000 neonatal foreskin fibroblasts per microtitre well at effector: target ratios of 1000, 100 and 10:1. Ing9 (60 ng/mL) was added and after 48 hr incubation the cultures were washed and labelled with [3H]-thymidine for 2 hr. […] Untreated leukocytes had no effect on cell survival.

[3] = tested on: neonatal foreskin fibroblasts; experiment: Killing by untreated leukocytes of drug-pretreated target cells; assay type: cell-based, human; conditions: target cells treated with 60 ng/mL for 20 hr and washed before leukocytes; 100:1 ratio of effector:target cells
Procedure: (§2) Leukocytes obtained by lysis of human peripheral blood were added to 5000 MM96L human melanoma cells or 7000 neonatal foreskin fibroblasts per microtitre well at effector: target ratios of 1000, 100 and 10:1. The target cells had been treated with 60 ng/mL PEP008 for 20 hr beforehand, and washed and the medium replaced before the leukocytes were added. After 48 hr incubation with the leukocytes the cultures were washed and labelled with [3H]-thymidine for 2 hr. […] Untreated leukocytes had no effect on cell survival.

[4] = tested on: neonatal foreskin fibroblasts; experiment: Leukocyte killing with drug present, [3H]-thymidine labelling; assay type: cell-based, human; conditions: 60 ng/mL with leukocytes, 48 hr; 100:1 ratio of effector:target cells
Procedure: as §1

[5] = tested on: MM96L human melanoma cells; experiment: Killing by untreated leukocytes of drug-pretreated target cells; assay type: cell-based; conditions: target cells treated with 60 ng/mL for 20 hr and washed before leukocytes; 100:1 ratio of effector:target cells
Procedure: as §2

For `C/C=C(/C)C(=O)O[C@H]1C(C)=C[C@]23C(=O)[C@@H](C=C(COC(C)=O)[C@@H](O)[C@]12O)[C@H]1[C@@H](C[C@H]3C)C1(C)C` [PEP008, 20-O-acetyl-ingenol-3-angelate], the “phagocytosis of fluorescent latex spheres in PBMCs” value [1] was “stimulate phagocytosis”, the “survival of melanoma cells” value [2] was 9% and the “survival of normal fibroblasts” value [3] was 100%. For the same molecule, the “survival of normal fibroblasts” value [4] was 100% and the “survival of melanoma cells” value [5] was 12%.
